Molecules are shown by their SMILES. Values joined by “and” are separate entries in the source; they are usually repeats but may differ in a detail not shown here. Equal entries are not always repeated.

Series [1] in a line: Buffer power test: pH on 1X, 2X, 3X dilution with Dulbecco's phosphate buffered saline (DPBS). As to conditions: for pH 1X DPBS: 1X dilution with DPBS; for pH 1X DPBS / pH 2X DPBS / pH 3X DPBS / pH 0X DPBS: 22-23° C.; for 1× pH: 1× dilution with DPBS; for pH 2X DPBS: 2X dilution with DPBS; for 2× pH: 2× dilution with DPBS; for pH 3X DPBS: 3X dilution with DPBS; for 3× pH: 3× dilution with DPBS; for pH of the product or solution: undiluted (0×); for pH 0X DPBS: undiluted. In kind it is physicochemical. The procedure: The pH of the resulting solution is tested and the test is passed if the resulting solution has a pH below 6.0.”
A Dulbecco phosphate buffer saline solution (DPBS) was purchased and used for all compositions at the 1×, 2× and 3× dilution. A typical composition for DPBS is provided below:

The conditions of series [2]: capsules with sesame oil, oral; cited from earlier work.

On to `O=C([O-])O.[Na+]` [0.1M Sodium Bicarbonate, sodium bicarbonate], for which, in series [1] (listed as NaHCO3 .1M*), the “pH 1X DPBS” value is 7.9 and 7.7; the “pH 2X DPBS” value was 7.5 and 7.6; the “pH 3X DPBS” value is 7.5 and 7.6. Moreover, in series [1] (listed as NaHCO3 .1M**), the “pH 1X DPBS” value was 7.7, the “pH 2X DPBS” value came to 7.5 and the “pH 3X DPBS” value was 7.5. Moreover, in series [1], the “1× pH” value was 7.9 and 7.7; the “2× pH” value is listed as 7.5; the “3× pH” value came to 7.5; the “pH of the product or solution” value came out at 8.1. Further, the “pH 0X DPBS” value in series [1] is recorded as 8.1.
Turning to `CCCCCc1cc(O)c2c(c1)OC(C)(C)[C@@H]1CCC(C)=C[C@@H]21` [dronabinol], in series [2], the “fraction entering the systemic circulation” value is recorded as 10-20%.
With `O=C([O-])[O-].[Na+].[Na+]` [Na2CO3 .1M, sodium carbonate], in series [1], the “pH 1X DPBS” value was 10.9 and 11.1; the “1× pH” value was 10.9; the “pH 2X DPBS” value was 11.1; the “2× pH” value is reported as 10.8. In addition, in series [1], the “pH 3X DPBS” value came to 11.1; the “3× pH” value is on record as 10.6; the “pH 0X DPBS” value was 11.5 and 11.3. The “pH of the product or solution” value in series [1] (listed as 0.1M Sodium Carbonate) was 11.3. The “pH of the product or solution” value in series [1] (listed as Sodium carbonate solution: 0.1M) was 11.5.

Source of the values: US20140166028A1, “Enhanced Delivery of Nicotine, THC, Tobacco, Cannabidiol or Base Alkaloid from an Electronic Cigarette or Other Vapor or Smoke Producing Device Through Use of an Absorption Conditioning Unit” (priority 2012, published 2014).
